Data published in the NIST ThermoML archive (doi:10.1021/je1003065).

Assay: mn = molality of the nth substance listed, in mol/kg
Details: Liquid, Vibrating tube method

[Br-].[Li+] [lithium bromide] + CCO
Details | mass density [kg/m3]
313.16 K, 69943 kPa, m1 = 2.272 | 954.83
313.16 K, 70035 kPa, m1 = 0.2335 | 838.62
313.16 K, 80024 kPa, m1 = 2.833 | 989.48
313.16 K, 99649 kPa, m1 = 1.462 | 925.34
313.17 K, 1995 kPa, m1 = 3.368 | 968.15
313.17 K, 5344 kPa, m1 = 3.368 | 970.84
313.17 K, 10286 kPa, m1 = 3.368 | 974.66
313.17 K, 19807 kPa, m1 = 3.368 | 981.61
313.17 K, 29957 kPa, m1 = 3.368 | 988.47
313.17 K, 40021 kPa, m1 = 2.833 | 967.43
313.17 K, 40159 kPa, m1 = 3.368 | 994.86
313.17 K, 49914 kPa, m1 = 3.368 | 1000.58
313.17 K, 80160 kPa, m1 = 2.272 | 960.11
313.17 K, 89963 kPa, m1 = 2.272 | 965.03
313.17 K, 99603 kPa, m1 = 3.368 | 1026.1
313.18 K, 59836 kPa, m1 = 3.368 | 1006.06
313.18 K, 69925 kPa, m1 = 3.368 | 1011.36
313.18 K, 89986 kPa, m1 = 3.368 | 1021.4
313.18 K, 100029 kPa, m1 = 2.272 | 969.91
313.19 K, 1459 kPa, m1 = 0.5972 | 812.65
313.2 K, 79843 kPa, m1 = 3.368 | 1016.39
323.13 K, 5012 kPa, m1 = 0.2335 | 784.23
323.13 K, 79954 kPa, m1 = 0.5972 | 859.95
323.14 K, 10001 kPa, m1 = 0.2335 | 788.63
323.14 K, 19956 kPa, m1 = 2.833 | 946.78
323.14 K, 29926 kPa, m1 = 3.368 | 981.06
323.14 K, 39945 kPa, m1 = 2.272 | 930.75
323.14 K, 39954 kPa, m1 = 1.462 | 885.66
323.14 K, 49912 kPa, m1 = 0.2335 | 819.58
323.14 K, 69926 kPa, m1 = 2.833 | 977.81
323.14 K, 70002 kPa, m1 = 1.462 | 904.07
323.14 K, 70002 kPa, m1 = 3.368 | 1004.85
323.15 K, 1023 kPa, m1 = 2.833 | 931.78
323.15 K, 1026 kPa, m1 = 0.5972 | 803.74
323.15 K, 1032 kPa, m1 = 2.272 | 901.6
323.15 K, 1032 kPa, m1 = 3.368 | 959.14
323.15 K, 1035 kPa, m1 = 1.462 | 855.48
323.15 K, 1203 kPa, m1 = 0.9499 | 825.48
323.15 K, 2012 kPa, m1 = 0.2335 | 781.53
323.15 K, 5014 kPa, m1 = 3.368 | 962.48
323.15 K, 5021 kPa, m1 = 0.5972 | 807.24
323.15 K, 5021 kPa, m1 = 2.833 | 935.15
323.15 K, 5024 kPa, m1 = 2.272 | 905.02
323.15 K, 5106 kPa, m1 = 1.462 | 859.08
323.15 K, 5451 kPa, m1 = 0.9499 | 829.11
323.15 K, 9995 kPa, m1 = 2.833 | 939.18
323.15 K, 10002 kPa, m1 = 2.272 | 909.13
323.15 K, 10023 kPa, m1 = 0.5972 | 811.53
323.15 K, 10026 kPa, m1 = 0.9499 | 832.95
323.15 K, 10065 kPa, m1 = 1.462 | 863.3
323.15 K, 19957 kPa, m1 = 0.9499 | 840.97
323.15 K, 19957 kPa, m1 = 3.368 | 974.07
323.15 K, 20023 kPa, m1 = 0.2335 | 797.12
323.15 K, 29784 kPa, m1 = 2.833 | 953.72
323.15 K, 29928 kPa, m1 = 0.9499 | 848.61
323.15 K, 29975 kPa, m1 = 1.462 | 878.73
323.15 K, 29978 kPa, m1 = 0.5972 | 827.54
323.15 K, 29986 kPa, m1 = 2.272 | 924.09
323.15 K, 39784 kPa, m1 = 0.9499 | 855.75
323.15 K, 39926 kPa, m1 = 0.2335 | 812.55
323.15 K, 39984 kPa, m1 = 3.368 | 987.61
323.15 K, 49921 kPa, m1 = 2.272 | 937
323.15 K, 49926 kPa, m1 = 1.462 | 892.13
323.15 K, 49928 kPa, m1 = 0.9499 | 862.68
323.15 K, 50001 kPa, m1 = 0.5972 | 841.84
323.15 K, 50021 kPa, m1 = 2.833 | 966.58
323.15 K, 59924 kPa, m1 = 3.368 | 999.37
323.15 K, 59926 kPa, m1 = 0.2335 | 825.76
323.15 K, 59957 kPa, m1 = 1.462 | 898.25
323.15 K, 59986 kPa, m1 = 2.833 | 972.34
323.15 K, 60024 kPa, m1 = 0.9499 | 869.15
323.15 K, 69794 kPa, m1 = 0.9499 | 875
323.15 K, 69794 kPa, m1 = 2.272 | 948.43
323.15 K, 69923 kPa, m1 = 0.5972 | 854.32
323.15 K, 79923 kPa, m1 = 1.462 | 909.56
323.15 K, 79924 kPa, m1 = 0.2335 | 837.48
323.15 K, 79926 kPa, m1 = 3.368 | 1010.05
323.15 K, 79935 kPa, m1 = 0.9499 | 880.66
323.15 K, 79953 kPa, m1 = 2.272 | 953.9
323.15 K, 79956 kPa, m1 = 2.833 | 983.13
323.15 K, 89924 kPa, m1 = 3.368 | 1015.15
323.15 K, 89925 kPa, m1 = 0.9499 | 885.81
323.15 K, 89926 kPa, m1 = 2.272 | 959.13
323.15 K, 89956 kPa, m1 = 0.2335 | 843.04
323.15 K, 89958 kPa, m1 = 2.833 | 988.29
323.15 K, 90021 kPa, m1 = 0.5972 | 865.14
323.15 K, 99678 kPa, m1 = 2.833 | 993.25
323.15 K, 99745 kPa, m1 = 0.5972 | 869.74
323.15 K, 99956 kPa, m1 = 3.368 | 1020.21
323.15 K, 99957 kPa, m1 = 1.462 | 920.17
323.15 K, 99965 kPa, m1 = 0.2335 | 847.91
323.15 K, 99969 kPa, m1 = 0.9499 | 890.57
323.15 K, 99985 kPa, m1 = 2.272 | 964.32
323.16 K, 10058 kPa, m1 = 3.368 | 966.55
323.16 K, 19945 kPa, m1 = 0.5972 | 819.71
323.16 K, 19956 kPa, m1 = 2.272 | 916.87
323.16 K, 20003 kPa, m1 = 1.462 | 871.29
323.16 K, 29921 kPa, m1 = 0.2335 | 805.03
323.16 K, 39928 kPa, m1 = 2.833 | 960.39
323.16 K, 49957 kPa, m1 = 3.368 | 993.67
323.16 K, 60002 kPa, m1 = 2.272 | 942.94
323.16 K, 70004 kPa, m1 = 0.2335 | 831.8
323.16 K, 89956 kPa, m1 = 1.462 | 914.93
323.17 K, 39926 kPa, m1 = 0.5972 | 834.87
323.18 K, 59974 kPa, m1 = 0.5972 | 848.31
